Test results reported in patent publication US20250171414A1, “COMPOUND SERVING AS MASP-2 INHIBITOR, PHARMACEUTICAL COMPOSITION, PREPARATION METHOD THEREFOR, AND USE THEREOF” (WUHAN CREATERNA SCIENCE AND TECHNOLOGY CO., LTD., priority 2022, published 2025).

system: lectin pathway (MBL) in human serum; experiment: Inhibition of activity of lectin pathway (MBL) in human serum (WIESLAB Complement System MBL Pathway kit); assay type: biochemical; conditions: 1% human serum
Experimental: The inhibition of the activity of the lectin pathway (MBL) in human serum by compounds was detected using a WIESLAB® Complement System MBL Pathway kit (SVAR, COMPLMP320). Test compounds were each serially diluted in a buffer (Diluent MP), and 1% human serum was incubated with the diluted compound solution for 15 min at room temperature. 100 μL of the mixture was added to a microplate and incubated at 37° C. for 60 min. The liquid in the wells was discarded, and the microplate was washed three times with a washing solution. A Conjugate antibody solution was added at 100 μL/well, and the resulting mixture was incubated for 30 min at 25° C. The liquid in the wells was discarded, and the microplate was washed three times with a washing solution; a substrate solution was added at 100 μL/well, and the resulting mixture was incubated for 30 min at 25° C.; the terminator was added at 50 μL/well, and the absorbance at 405 nm was detected within 30 min by using a microplate reader.

Row | SMILES | IC50
1 | Cc1cc(C2=C[C@@H](C(=O)N[C@@H](C)C(=O)N[C@@H]3CCc4nc(N)ccc43)NCC2)ccc1F (single isomer, unassigned) [Compound L071-IS-02] | 7.85 nM
2 | C[C@H](NC(=O)[C@H]1CC(c2cccc(F)c2)CCN1)C(=O)NC1CCc2nc(N)ccc21 (stereo in doubt) [Compound L039-IS-02, (2R,4S)-N-((2S)-1-((2-amino-6,7-dihydro-5H-cyclopenta[b]pyridin-5-yl)amino)-1-oxopropan-2-yl)-4-(3-fluorophenyl)piperidine-2-carboxamide] | 2.36 nM
3 | C[C@H](NC(=O)c1cc(-c2ccccc2)c[nH]1)C(=O)N[C@@H]1CCc2nc(N)ccc21 [Compound L020-IS-01, N—((S)-1-(((R)-2-amino-6,7-dihydro-5H-cyclopenta[b]pyridin-5-yl)amino)-1-oxopropan-2-yl)-4-phenyl-1H-pyrrole-2-carboxamide] | 15 nM
4 | C[C@H](NC(=O)[C@H]1C[C@@H](c2ccccc2)CCN1)C(=O)NC1CCc2nc(N)ccc21 (stereo partly drawn) [Compound L021-IS-01, (2R,4S)—N-((2S)-1-((2-amino-6,7-dihydro-5H-cyclopenta[b]pyridin-5-yl)amino)-1-oxopropan-2-yl)-4-phenylpiperidine-2-carboxamide] | 0.26 nM
5 | C[C@H](NC(=O)[C@H]1C[C@@H](c2ccc(F)cc2)CCN1)C(=O)NC1CCc2nc(N)ccc21 (stereo partly drawn) [Compound L033-IS-02, (2R,4S)—N-((2S)-1-((2-amino-6,7-dihydro-5H-cyclopenta[b]pyridin-5-yl)amino)-1-oxopropan-2-yl)-4-(4-fluorophenyl) piperidine-2-carboxamide] | 2.26 nM
6 | C[C@H](NC(=O)[C@H]1C[C@@H](c2ccccc2F)CCN1)C(=O)NC1CCc2nc(N)ccc21 (stereo partly drawn) [Compound L038-IS-02, (2R,4S)—N-((2S)-1-((2-amino-6,7-dihydro-5H-cyclopenta[b]pyridin-5-yl)amino)-1-oxopropan-2-yl)-4-(2-fluorophenyl) piperidine-2-carboxamide] | 4.76 nM
7 | C[C@H](NC(=O)[C@H]1C[C@@H](c2cccc(C(F)(F)F)c2)CCN1)C(=O)NC1CCc2nc(N)ccc21 (stereo partly drawn) [Compound L044-IS-02, (2R,4S)-N-((2S)-1-((2-amino-6,7-dihydro-5H-cyclopenta[b]pyridin-5-yl)amino)-1-oxopropan-2-yl)-4-(3-(trifluoromethyl)phenyl)piperidine-2-carboxamide] | 1.83 nM
8 | C[C@H](NC(=O)[C@H]1C[C@@H](c2ccc(F)c(F)c2)CCN1)C(=O)NC1CCc2nc(N)ccc21 (stereo partly drawn) [Compound L045-IS-02, (2R,4S)-N-((2S)-1-((2-amino-6,7-dihydro-5H-cyclopenta[b]pyridin-5-yl)amino)-1-oxopropan-2-yl)-4-(3,4-difluorophenyl)piperidine-2-carboxamide] | 4.11 nM
9 | C[C@H](NC(=O)[C@H]1C[C@@H](c2cccc(OC(F)(F)F)c2)CCN1)C(=O)NC1CCc2nc(N)ccc21 (stereo partly drawn) [Compound L046-IS-02, (2R,4S)-N-((2S)-1-((2-amino-6,7-dihydro-5H-cyclopenta[b]pyridin-5-yl)amino)-1-oxopropan-2-yl)-4-(3-(trifluoromethoxy)phenyl)piperidine-2-carboxamide] | 3.71 nM
10 | C[C@H](NC(=O)[C@H]1C[C@@H](c2ccc(F)cc2F)CCN1)C(=O)NC1CCc2nc(N)ccc21 (stereo partly drawn) [Compound L047-IS-02, (2R,4S)-N-((2S)-1-((2-amino-6,7-dihydro-5H-cyclopenta[b]pyridin-5-yl)amino)-1-oxopropan-2-yl)-4-(2,4-difluorophenyl)piperidine-2-carboxamide] | 3.06 nM

The next lines start with the values.

Row | IC50 | SMILES
11 | 12.8 nM | Cc1ccc(C[C@@H]2CN[C@@H](C(=O)N[C@@H](C)C(=O)NC3CCc4nc(N)ccc43)C2)cc1 (stereo partly drawn) [Compound L004, (2R,4S)—N-((2S)-1-((2-amino-6,7-dihydro-5H-cyclopenta[b]pyridin-5-yl)amino)-1-oxopropan-2-yl)-4-(4-methylbenzyl) pyrrolidine-2-carboxamide]
12 | 7.08 nM | CC(c1ccccc1)[C@H]1CN[C@@H](C(=O)N[C@@H](C)C(=O)NC2CCc3nc(N)ccc32)C1 (stereo partly drawn) [Compound L009, (2R,4S)—N-((2S)-1-((2-amino-6,7-dihydro-5H-cyclopenta[b]pyridin-5-yl)amino)-1-oxopropan-2-yl)-4-(1-phenylethyl) pyrrolidine-2-carboxamide]
13 | 7.55 nM | Cc1cc(C[C@@H]2CN[C@@H](C(=O)N[C@@H](C)C(=O)NC3CCc4nc(N)ccc43)C2)ccn1 (stereo partly drawn) [Compound L011, (2R,4S)—N-((2S)-1-((2-amino-6,7-dihydro-5H-cyclopenta[b]pyridin-5-yl)amino)-1-oxopropan-2-yl)-4-((2-methylpyridin-4-yl)methyl) pyrrolidine-2-carboxamide]
14 | 6.62 nM | C[C@H](NC(=O)[C@H]1C[C@H](Cc2nc3cc(Cl)ccc3s2)CN1)C(=O)NC1CCc2nc(N)ccc21 (stereo partly drawn) [Compound L013, (2R,4R)—N-((2S)-1-((2-amino-6,7-dihydro-5H-cyclopenta[b]pyridin-5-yl)amino)-1-oxopropan-2-yl)-4-((5-chlorobenzo[d]thiazol-2-yl)methyl) pyrrolidine-2-carboxamide]
15 | 1.99 nM | COc1cc2ccccc2cc1C[C@@H]1CN[C@@H](C(=O)N[C@@H](C)C(=O)NC2CCc3nc(N)ccc32)C1 (stereo partly drawn) [Compound L015, (2R,4S)—N-((2S)-1-((2-amino-6,7-dihydro-5H-cyclopenta[b]pyridin-5-yl)amino)-1-oxopropan-2-yl)-4-((3-methoxynaphthalen-2-yl)methyl) pyrrolidine-2-carboxamide]
16 | 4.64 nM | Cc1cccc(C[C@@H]2CN[C@@H](C(=O)N[C@@H](C)C(=O)NC3CCc4nc(N)ccc43)C2)c1 (stereo partly drawn) [Compound L016, (2R,4S)—N-((2S)-1-((2-amino-6,7-dihydro-5H-cyclopenta[b]pyridin-5-yl)amino)-1-oxopropan-2-yl)-4-(3-methylbenzyl) pyrrolidine-2-carboxamide]
17 | 6.96 nM | C[C@H](NC(=O)[C@H]1C[C@H](C2(c3ccccc3)CC2)CN1)C(=O)NC1CCc2nc(N)ccc21 (stereo partly drawn) [Compound L017, (2R,4R)—N-((2S)-1-((2-amino-6,7-dihydro-5H-cyclopenta[b]pyridin-5-yl)amino)-1-oxopropan-2-yl)-4-(1-phenylcyclopropyl) pyrrolidine-2-carboxamide]
18 | 3.75 nM | C[C@H](NC(=O)C1CC(c2ccccc2)CCN1)C(=O)NC1CCc2nc(N)ccc21 (stereo partly drawn) [Compound L021, N-((2S)-1-((2-amino-6,7-dihydro-5H-cyclopenta[b]pyridin-5-yl)amino)-1-oxopropan-2-yl)-4-phenylpiperidine-2-carboxamide]
19 | 6.34 nM | C[C@H](NC(=O)[C@H]1CN(Cc2ccccc2)CCN1)C(=O)NC1CCc2nc(N)ccc21 (stereo partly drawn) [Compound L024, (2R)—N-((2S)-1-((2-amino-6,7-dihydro-5H-cyclopenta[b]pyridin-5-yl)amino)-1-oxopropan-2-yl)-4-benzylpiperazine-2-carboxamide]
20 | 5.52 nM | C[C@H](NC(=O)[C@H]1CN(c2cccc3ccccc23)CCN1)C(=O)NC1CCc2nc(N)ccc21 (stereo partly drawn) [Compound L025]
21 | 4.49 nM | Nc1ccc2c(n1)CCC2NC(=O)[C@@H]1CCCN1C(=O)[C@H]1C[C@H](Cc2ccc(F)cc2)CN1 (stereo partly drawn) [Compound L031, (2S)—N-(2-amino-6,7-dihydro-5H-cyclopenta[b]pyridin-5-yl)-1-((2R,4S)-4-(4-fluorobenzyl)pyrrolidine-2-carbonyl) pyrrolidine-2-carboxamide]
